Measured values as given in patent publication US11974983B2 (Duke University, priority 2018, dated 2024).
Read-outs that look alike come from different tables or passages of the source.

Assays:
[1] = cited from earlier work
[2] = test system: MCF7 cells stably expressing DOX-inducible ER Y537S; assay: Dose response cell counting in MCF7 cells with DOX-inducible HA-tagged ER Y537S; assay type: cell-based; conditions: for IC50: Homo sapiens, MCF7, 120 h, allele Y537S, cell count day 5, full medium
Description: (§1) MCF7 estrogen receptor alpha positive (ER^+) breast cancer cells were engineered to stably express doxycycline (DOX)-inducible hemagglutinin (HA)-tagged full length ER with ligand binding domain mutations Y537S and D538G. The introduction and expression of the mutants were confirmed by Sanger sequencing, RNA-sequencing, and western blot.
(§2) The dose response studies were performed in full medium conditions. Cells were treated with DOX for the induction of HA-tagged mutated ER or with vehicle as control, and plated in triplicate. Subsequently, on day 5, cell counting was performed using the Celigo instrument with Hoechst dye staining to detect nucleated live cells and propidium iodide to quantify dead cells.
(§3) IC50 values were calculated using PRISM.

[3] = test system: wild-type ERα and ERα LBD mutants Y537S, Y537N, Y537C, D538G; assay: ERE-luciferase reporter assay in Caov2 and SKBR3 cells (statements on all receptors); assay type: cell-based
Description: ExSite mutagenesis was performed using the corresponding primers as summarized in Table 1 below on a pENTR2B ERα WT construct using Pfu ultra taq polymerase. The primers were PNK phosphorylated. Following PCR amplification, the products were digested with DpnI at 37° C. for 1 hr, followed by overnight ligation at 16° C. Ligated products were transformed into DH5α bacterial cells and grown on kanamycin resistant plates. The pENTR clones were verified by sequencing and then swapped into the pcDNA-DEST vector using the Gateway system (Invitrogen) for expression analysis.
Caov2 ovarian carcinoma cells were grown in RPMI-1640 media (Gibco) supplemented with 8% Fetal Bovine Serum (FBS), Sodium Pyruvate (NaPyr) and non-essential amino acids (NEAA) and passaged every 2-3 days. SKBR3 breast adenocarcinoma cells were grown in DMEM media (Gibco) supplemented with 8% Fetal Bovine Serum (FBS), Sodium Pyruvate (NaPyr) and non-essential amino acids (NEAA) and passaged every 2-3 days. […]
Caov2 cells were co-transfected with the 7X-TK-ERE-TATA luciferase reporter gene (Nagel et al., Endocrinology 142(11): 4721-4728 (2001)) and expression constructs for either wild-type or mutant receptors using Fugene transfection reagent (Promega). […] Following 24 hours of treatment, cells were lysed and the luciferase and β-gal assays were performed as described previously (Norris et al., J Biol Chem 270(39): 22777-22782 (1995)) and the plates were read on the Fusion α-FP HT plate reader (PerkinElmer Life Sciences).
See Jeselsohn et al., Nature Reviews Clinical Oncology 12(10): 573-583 (2015); Jeselsohn et al., Clinical Cancer Research 20(7): 1757-1767 (2014); Robinson et al., Nature Genetics 45(12): 1446-1451(2013); Thomas and Gustafsson, Trends in Endocrinology and Metabolism 26(9): 467-476 (2015); and Toy et al., Nature Genetics 45(12): 1439-1445 (2013). The activity of these mutants was evaluated in a reconstituted estrogen response element (ERE)-luciferase reporter assay in Caov2 ovarian carcinoma cells and SKBR3 breast adenocarcinoma cells. […]

[4] = test system: ER+ HER2− advanced or metastatic breast cancer; assay: Phase 2 clinical study, lasofoxifene versus fulvestrant; assay type: in vivo, postmenopausal women; conditions: 5 mg once daily oral
Description: The design of the study is outlined in FIG. 26. The study is an open label, randomized, multicenter study. Full recruitment into study occurs within twelve to sixteen months, with another twelve months of follow up before the primary outcome measure is analyzed. Screening tests are performed within thirty days of enrollment. Subjects are treated until documented disease progression.
As a comparison, fulvestrant is given to the breast cancer patient at 500 mg by intramuscular injection on day 1, day 15, and day 29, and then once every month.
The inclusion criteria include: • 1. Postmenopausal women with: a. locally advanced or metastatic breast cancer with either measurable or non-measurable lesions, b. progression on an AI in combination with a CDK 4/6 inhibitor for advanced breast cancer; • 2. If possible, a biopsy of metastatic breast cancer tissue will be obtained to confirm ER^+ and HER2^− disease; • 3. At least one or more of the following ESR1 mutations: Y537S, Y537N, Y537C, D538G, L536, E380Q, or S463P assessed from […] in blood; • 4. Received one chemotherapy regimen in the neo-adjuvant or adjuvant setting prior to entry into the trial; • 5. ECOG performance score of 0 or 1.

[5] = test system: MCF7 cells stably expressing DOX-inducible ER D538G; assay: Dose response cell counting in MCF7 cells with DOX-inducible HA-tagged ER D538G; assay type: cell-based; conditions: for IC50: Homo sapiens, MCF7, 120 h, allele D538G, cell count day 5, full medium
Description: as §1, §2, §3

MCF7 Y537S = assay: Mammary intraductal (MIND) xenograft model, MCF7 Y537S; assay type: in vivo, NSG mice
Description: MCF7 cells were engineered with CRISPR/Cas9 to express ERα with Y537S and D538G mutations. To mimic the natural environment of infiltrating ductal ERα^+ breast cancers, NSG™ mice were injected, via the nipple in the inguinal mammary glands, with three MCF7 cell variants: wild type MCF7 cells (MCF7 WT), MCF7 cells expressing Y537S mutant ERα (MCF7 Y537S), and MCF7 cells expressing D538G mutant ERα (MCF7 D538G), respectively. Prior to injection, the MCF7 cells were labeled with a luciferase reporter to monitor tumor growth in vivo using a Xenogen IVIS imager. […] FIG. 4 summarizes the experimental design.

[6] = DOX-induced mutant ER, read-out: IC50 DOX (ESR mutation)
[7] = no DOX, read-out: IC50 No DOX (wt only)
[8] = MCF7 Y537S, 5 mg/kg and 10 mg/kg, after 70 days

SMILES: Oc1ccc2c(c1)CC[C@H](c1ccccc1)[C@@H]2c1ccc(OCCN2CCCC2)cc1 [Lasofoxifene, lasofoxifene]
- risk of breast cancer ([1]; PEARL trial, post-menopausal women with osteoporosis): reduced the risk of breast cancer
- risk of osteoporosis ([1]; double-blind, placebo-controlled, randomized PEARL trial): reduce the risk of osteoporosis
- IC50 [2, 6]: 4.1 nM
- IC50 [2, 7]: 0.36 nM
- anti-estrogenic activity, cell killing with increasing dose titration ([2]; Y537S stable transfectants, 10^−12 M to 10^−6 M): kill the stably transfected cells
- inhibition of the transcriptional activity of the ERα mutants ([3]; all tested ERα LBD mutants, in presence of 1 nM 17-β estradiol, Caov2 and SKBR3 cells): effectively inhibited the transcriptional activity of all tested ERα LBD mutants in a dose-response manner
- response of mutants to inhibitory action compared with WT receptor ([3]; each mutant versus WT receptor): reduced response
- median PFS compared to fulvestrant ([4]; D538G mutant patient population): increases the median PFS
- median PFS compared to fulvestrant ([4]; E380Q mutant patient population): increases the median PFS
- median PFS compared to fulvestrant ([4]; ESR1 mutation population): increases the median PFS
- median PFS compared to fulvestrant ([4]; L536 mutant patient population): increases the median PFS
- median PFS compared to fulvestrant ([4]; S463P mutant patient population): increases the median PFS
- median PFS compared to fulvestrant ([4]; Y537C mutant patient population): increases the median PFS
- median PFS compared to fulvestrant ([4]; Y537N mutant patient population): increases the median PFS
- median PFS compared to fulvestrant ([4]; Y537S mutant patient population): increases the median PFS
- anti-estrogenic activity, cell killing with increasing dose titration ([5]; D538G stable transfectants, 10^−12 M to 10^−6 M): kill the stably transfected cells
- IC50 [5, 6]: 1 nM
- IC50 [5, 7]: 0.1 nM
- tumor growth monitored by total flux (MCF7 Y537S; MCF7 Y537S mice, 10 mg/kg five times per week subcutaneous): most significantly inhibited
- liver metastasis, compared to fulvestrant (MCF7 Y537S; [8]): significantly more effective in reducing liver metastasis
- tumor weight, compared to fulvestrant (MCF7 Y537S; [8]): significantly more effective
- tumor growth measured by tumor weight, compared to vehicle control (MCF7 Y537S; MCF7 Y537S, 10 mg/kg, after 70 days of treatment): significantly inhibited
- tumor growth measured by tumor weight (MCF7 Y537S; MCF7 Y537S, all tested doses (1, 5, 10 mg/kg), after 70 days): significantly inhibited the growth of tumors at all tested doses
- lung metastasis (MCF7 Y537S; MCF7 Y537S, lasofoxifene 5 mg/kg and 10 mg/kg, after 70 days): significantly reduce lung metastasis
